Measured values: paper PMC12711018, “Structural flexibility of the nicotinamide group of NADH in butanol dehydrogenase YqdH from Fusobacterium nucleatum” (PLOS One, 2025)

Molecular target: T1, FnYqdH (butanol dehydrogenase YqdH) (Fusobacterium nucleatum, UniProt Q8R612)
T1 construct: gene FN1415; recombinant from pPRO-EX-HTA in E. coli BL21 (DE3); His6 tag removed with TEV protease
T1 sequence (Q8R612 1-385): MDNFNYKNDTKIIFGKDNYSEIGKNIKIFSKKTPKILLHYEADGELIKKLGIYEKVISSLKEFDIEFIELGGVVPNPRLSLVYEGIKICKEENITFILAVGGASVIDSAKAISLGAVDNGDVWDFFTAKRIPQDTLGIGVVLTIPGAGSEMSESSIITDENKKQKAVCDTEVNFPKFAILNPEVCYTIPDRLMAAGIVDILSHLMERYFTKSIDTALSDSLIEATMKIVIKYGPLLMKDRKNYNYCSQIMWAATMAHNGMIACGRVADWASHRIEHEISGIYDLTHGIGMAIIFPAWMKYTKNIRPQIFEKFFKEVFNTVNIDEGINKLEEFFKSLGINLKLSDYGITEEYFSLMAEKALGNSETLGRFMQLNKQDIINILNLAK
Assay: X-ray crystallography, crystal soaked with NADH ([…] A)
Assay type: binding
Conditions: soak 1 min in 10 mM NADH, 2 mM Co2+, 25% glycerol; crystals grown in 0.1 M HEPES pH 7.5, 1.8 M ammonium phosphate; only the ADP part is seen and modelled as ADP, nicotinamide part disordered

NC(=O)C1=CN([C@@H]2O[C@H](COP(=O)(O)OP(=O)(O)OC[C@H]3O[C@@H](n4cnc5c(N)ncnc54)[C@H](O)[C@@H]3O)[C@@H](O)[C@H]2O)C=CC1 [NADH]
X-ray crystallography, crystal soaked with NADH (2.70 A): presence of the adenine and diphosphate groups of the NADH molecule
